According to PubChem BioAssay (NCI):
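All cell lines were grown in 96-well plates and treated with compound for 48 hours. The concentration for 50% growth inhibition is given as GI50. TGI marks complete inhibition of growth.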

What was measured:
Assay in all cases: NCI tumour cell line growth inhibition, 48 h
[1] = test system: MDA-MB-435
[2] = test system: MDA-MB-231 breast
[3] = test system: SK-MEL-28 melanoma
[4] = test system: HT29 colon
[5] = test system: MOLT-4 leukemia
[6] = test system: SF-539 CNS
[7] = test system: DU-145 prostate
[8] = test system: HCT-116 colon
[9] = test system: OVCAR-8 ovarian
[10] = test system: SK-OV-3 ovarian
[11] = test system: M14 melanoma
[12] = test system: NCI-H23 lung
[13] = test system: SK-MEL-2 melanoma
[14] = test system: LOX IMVI melanoma
[15] = test system: ACHN renal
[16] = test system: PC-3 prostate
[17] = test system: RXF 393 renal
[18] = test system: EKVX NSCLC
[19] = test system: OVCAR-3 ovarian
[20] = test system: SW-620 colon
[21] = test system: TK-10 renal
[22] = test system: HOP-62 NSCLC
[23] = test system: OVCAR-4 ovarian
[24] = test system: SF-268 CNS
[25] = test system: NCI/ADR-RES ovarian
[26] = test system: HL-60(TB) leukemia
[27] = test system: HS 578T breast
[28] = test system: A549 NSCLC
[29] = test system: SK-MEL-5 melanoma
[30] = test system: NCI-H460 lung
[31] = test system: IGROV1 ovarian
[32] = test system: BT-549 breast
[33] = test system: SNB-19 CNS
[34] = test system: UO-31 renal
[35] = test system: HOP-92 NSCLC
[36] = test system: MCF7 breast
[37] = test system: A498 renal
[38] = test system: NCI-H226 lung
[39] = test system: UACC-257 melanoma
[40] = test system: 786-0 renal
[41] = test system: KM12 colon
[42] = test system: SR leukemia
[43] = test system: SN12C renal
[44] = test system: OVCAR-5 ovarian
[45] = test system: T-47D breast
[46] = test system: NCI-H522 lung
[47] = test system: CCRF-CEM leukemia
[48] = test system: U251 CNS

COc1cc(-c2nn(-c3ccc(NC(=O)NCCNS(=O)(=O)c4ccc(F)cc4)cc3)cc2-c2ccncc2)ccc1Cl
GI50 [1]: 170 nM | TGI [1]: 418 nM | GI50 [2]: 650 nM | TGI [2]: 3380 nM | GI50 [3]: 1420 nM | TGI [3]: 9290 nM | GI50 [4]: 318 nM | TGI [4]: 1230 nM | GI50 [5]: 583 nM | TGI [5]: 3990 nM | GI50 [6]: 281 nM | TGI [6]: 965 nM | GI50 [7]: 387 nM | TGI [7]: 10800 nM | GI50 [8]: 339 nM | TGI [8]: 1770 nM | GI50 [9]: 588 nM | TGI [9]: 5380 nM | GI50 [10]: 705 nM | TGI [10]: 8150 nM | GI50 [11]: 324 nM | TGI [11]: 1530 nM | GI50 [12]: 632 nM | TGI [12]: 5180 nM | GI50 [13]: 553 nM | TGI [13]: 2620 nM | GI50 [14]: 556 nM | TGI [14]: 2880 nM | GI50 [15]: 2210 nM | TGI [15]: 8060 nM | GI50 [16]: 453 nM | TGI [16]: 4750 nM | GI50 [17]: 247 nM | TGI [17]: 888 nM | GI50 [18]: 1320 nM | TGI [18]: > 100000 nM | GI50 [19]: 246 nM | TGI [19]: 665 nM | GI50 [20]: 529 nM | TGI [20]: 12700 nM | GI50 [21]: 1890 nM | TGI [21]: 6330 nM | GI50 [22]: 544 nM | TGI [22]: 51000 nM | GI50 [23]: 1040 nM | TGI [23]: > 100000 nM | GI50 [24]: 629 nM | TGI [24]: 5000 nM | GI50 [25]: > 100000 nM | TGI [25]: > 100000 nM | GI50 [26]: 391 nM | TGI [26]: 2260 nM | GI50 [27]: 453 nM | TGI [27]: 5980 nM | GI50 [28]: 1920 nM | TGI [28]: 23100 nM | GI50 [29]: 453 nM | TGI [29]: 1680 nM | GI50 [30]: 387 nM | TGI [30]: 1510 nM | GI50 [31]: 795 nM | TGI [31]: 8400 nM | GI50 [32]: 782 nM | TGI [32]: 4950 nM | GI50 [33]: 857 nM | TGI [33]: > 100000 nM | GI50 [34]: 2380 nM | TGI [34]: > 100000 nM | GI50 [35]: 1450 nM | TGI [35]: 5910 nM | GI50 [36]: 300 nM | TGI [36]: > 100000 nM | GI50 [37]: 389 nM | TGI [37]: 2180 nM | GI50 [38]: 1380 nM | TGI [38]: 7300 nM | GI50 [39]: 1570 nM | TGI [39]: 4730 nM | GI50 [40]: 901 nM | TGI [40]: 6300 nM | GI50 [41]: 390 nM | TGI [41]: 2030 nM | GI50 [42]: 427 nM | TGI [42]: 3010 nM | GI50 [43]: 733 nM | TGI [43]: 8440 nM | GI50 [44]: 1210 nM | TGI [44]: > 100000 nM | GI50 [45]: 733 nM | TGI [45]: 5560 nM | GI50 [46]: 295 nM | TGI [46]: 2700 nM | GI50 [47]: 459 nM | TGI [47]: > 100000 nM | GI50 [48]: 409 nM | TGI [48]: 2490 nM
